Assay results published in article PMC10290043, “Pharmacokinetics, safety, and antitumor activity of talazoparib monotherapy in Chinese patients with advanced solid tumors” (Investigational New Drugs, 2023).
Like-named read-outs stand apart in the source and are kept apart here.

Columns and labels:
[1] = parameters: method as in PMID 30110579; conditions: EMBRACA, cited from earlier work
advanced solid tumors = assay: Antitumor activity: best overall response / unconfirmed objective response by investigator assessment; assay type: in vivo, human
Method: Tumor assessments were performed on Day 29 and every 8 weeks thereafter for the initial 12 cycles, regardless of any dose interruptions or dose delays, and then performed per local standard practice after completion of Cycle 12. […] Unconfirmed objective response by investigator assessment was defined as a complete (disappearance of all target lesions) or partial (at least 30% decrease in the sum of diameters of target lesions) response recorded from Cycle 1 Day 1 until disease progression, start of subsequent anticancer therapy, or death due to any cause. Given the exploratory nature of the efficacy endpoint, confirmation of response was not required. Duration of response, calculated as the time from first documentation of complete response or partial response to date of first documentation of objective progression or death, was only calculated for the subgroup of patients with an unconfirmed objective response. All patients who had received at least 1 dose of talazoparib were included in the safety and efficacy analysis sets. All treated patients with at least 1 PK concentration in the single-dose and/or multiple-dose PK part were included in the PK concentration analysis set, and all treated patients with at least 1 of the PK parameters of primary interest in the single-dose and/or multiple-dose PK part were included in the PK parameter analysis set. All patients in the PK parameter analysis set who completed both the single-dose PK and multiple-dose PK parts without major protocol deviations were included in the PK evaluable analysis set.

clinical = conditions: human, in vivo, po, 1 mg
Method: A single dose of talazoparib 1 mg was administered orally on Day –9. From Cycle 1 Day 1, patients received talazoparib 1 mg QD orally on a continuous basis at approximately the same time each day (preferably in the morning) until disease progression, death, unacceptable toxicity, or withdrawal of consent. Dose interruptions or reductions were not required unless toxicity persisted at grade 2 for ≥7 days. Daily dosing was paused for grade ≥3 hematologic toxicities. Supportive care including blood products was allowed as appropriate per local guidance. To minimize any drug-drug interaction effects relating to talazoparib exposure and potential alteration to efficacy, co-medication with P-glycoprotein (P-gp) inhibitors and inducers was prohibited for Cycle 1 when intensive PK assessments were scheduled after both single-dose and multiple-dose talazoparib administrations. After Cycle 1, only potent P-gp inhibitors were prohibited to accommodate more co-medication options.
To assess the single-dose PK profile, patients took talazoparib on Day –9 of a 9-day (216 h) lead-in period; blood samples were collected at pre-dose and at 0.5, 1, 2, 4, 8, 24, 48, 96, 168, and 216 h post-dose. For the steady-state PK profile, serial samples after multiple doses of talazoparib were collected on Day 22 of the first cycle at pre-dose and at 0.5, 1, 2, 4, 8, and 24 h post-dose. Prior to serial PK sampling (Cycle 1 Day –9, Cycle 1 Day 22), patients were required to fast for at least 8 h before dosing and they had to continue fasting for 2 h after dosing to control the variability due to food effect on Cmax. For the other PK sampling points, talazoparib could have been taken with or without food. On clinic visit days, talazoparib was administered after completion of a pre-dose blood sampling for PK and assessments. Blood samples of approximately 3 mL, to provide a minimum of 1.5 mL plasma, for measurement of talazoparib concentrations were collected.
Talazoparib PK parameters were calculated for each patient and each treatment, as applicable, using non-compartmental analysis of concentration-time data. Summary statistics were calculated by setting concentration values below the lower limit of quantification to zero.

[2] = cited from earlier work; for Tmax: median (range)
[3] = 11 patients with measurable disease at baseline
[4] = patients with measurable disease N=11
[5] = multiple dosing 1 mg QD oral, ref de Bono et al 2017
[6] = single dosing 1 mg oral, ref de Bono et al 2017

Cn1ncnc1[C@H]1c2n[nH]c(=O)c3cc(F)cc(c23)N[C@@H]1c1ccc(F)cc1 [talazoparib]
Grade 3–4 TEAE: thrombocytopenia ([1]; 42/286): 15% | Grade 3–4 TEAE: neutropenia ([1]; 60/286): 21% | Grade 3–4 TEAE: anemia ([1]; 112/286): 39% | Patients progressed by data cut-off (advanced solid tumors; [3]): 54.5% | Patients with stable disease (advanced solid tumors; [3]): 36.4% | ORR (best overall response of partial response) (advanced solid tumors; 11 patients with measurable disease at baseline, 95% CI 0.2–41.3): 9.1% | Patients with non-complete response/non-progressive disease (advanced solid tumors; 15 treated patients): 6.7% | Patients with partial response (advanced solid tumors; 15 treated patients): 6.7% | Patients with stable disease (advanced solid tumors; 15 treated patients): 26.7% | Unconfirmed objective response rate (investigator-assessed) (advanced solid tumors; 15 treated patients, 95% CI 0.2–31.9): 6.7% | Disease control based on best overall response (advanced solid tumors; 15 treated patients, 95% CI 16.3–67.7): 40.0% | Disease control rate (advanced solid tumors; 95% CI 16.7–76.6): 45.5% | Best overall response: Complete response (advanced solid tumors; efficacy analysis set N=15): 0 n (%) | Best overall response: Non-complete response/non-progressive disease (advanced solid tumors; efficacy analysis set N=15): 1 (6.7) n (%) | Best overall response: Not evaluable (advanced solid tumors; efficacy analysis set N=15): 2 (13.3) n (%) | Best overall response: Partial response (advanced solid tumors; efficacy analysis set N=15): 1 (6.7) n (%) | Best overall response: Progressive disease (advanced solid tumors; efficacy analysis set N=15): 7 (46.7) n (%) | Best overall response: Stable disease (advanced solid tumors; efficacy analysis set N=15): 4 (26.7) n (%) | Disease control (advanced solid tumors; efficacy analysis set N=15, CR, PR, SD and non-CR/non-PD): 6 (40.0 [16.3–67.7]) n (%, [95% CI]) | Objective response (advanced solid tumors; efficacy analysis set N=15, complete and partial responses, Clopper-Pearson CI): 1 (6.7 [0.2–31.9]) n (%, [95% CI]) | Best overall response: Complete response (advanced solid tumors; [4]): 0 n (%) | Best overall response: Non-complete response/non-progressive disease (advanced solid tumors; [4]): 0 n (%) | Best overall response: Not evaluable (advanced solid tumors; [4]): 0 n (%) | Best overall response: Partial response (advanced solid tumors; [4]): 1 (9.1) n (%) | Best overall response: Progressive disease (advanced solid tumors; [4]): 6 (54.5) n (%) | Best overall response: Stable disease (advanced solid tumors; [4]): 4 (36.4) n (%) | Disease control (advanced solid tumors; [4]): 5 (45.5 [16.7–76.6]) n (%, [95% CI]) | Duration of response (advanced solid tumors; the one responder, measurable disease at baseline): 114 days | AUC (clinical): 86.5 ng·h/mL | AUC(0-inf) (clinical): 208 ng·h/mL | AUC(0-t) (clinical): 172 ng·h/mL | Cmax (clinical): 8.51 ng/mL | Tmax (clinical): 1.9 h | Vd/F (clinical): 457 L | half-life (clinical): 67 ± 11.8 h | Median time to Cmax ([2]; Western patients with advanced cancers): ≤ 2 h | Mean accumulation ratio at steady state ([2]; Western patients): 2.4 fold | t1/2 (plasma elimination, biphasic kinetics) ([2]; Western patients): approximately 2 days | Cmax ([2]; multiple dosing 1 mg QD oral, N=6, ref de Bono et al 2017): 21.0 (7.99) ng/mL | Tmax [2, 5]: 1.02 (0.75–2.00) h | CL/F [2, 5]: 5.24 (1.39) L/h | Cmax ([2]; single dosing 1 mg oral, N=5, US/UK sites, ref de Bono et al 2017): 10.6 (4.22) ng/mL | t1/2 ([2]; single dosing 1 mg oral, arithmetic mean ± standard deviation, ref de Bono et al 2017): 52.9 ± 13.4 h | VZ/F ([2]; single dosing 1 mg oral, column uncertain, ref de Bono et al 2017): 415 (170) L | Tmax [2, 6]: 1.03 (0.73–2.07) h | CL/F [2, 6]: 5.39 (1.59) L/h
